Experiment [1] addresses T1, Recombinant purified human JAK3 (Homo sapiens, UniProt P52333).
T1 construct: purchased Promega V9441
T1 sequence (P52333 1-1124): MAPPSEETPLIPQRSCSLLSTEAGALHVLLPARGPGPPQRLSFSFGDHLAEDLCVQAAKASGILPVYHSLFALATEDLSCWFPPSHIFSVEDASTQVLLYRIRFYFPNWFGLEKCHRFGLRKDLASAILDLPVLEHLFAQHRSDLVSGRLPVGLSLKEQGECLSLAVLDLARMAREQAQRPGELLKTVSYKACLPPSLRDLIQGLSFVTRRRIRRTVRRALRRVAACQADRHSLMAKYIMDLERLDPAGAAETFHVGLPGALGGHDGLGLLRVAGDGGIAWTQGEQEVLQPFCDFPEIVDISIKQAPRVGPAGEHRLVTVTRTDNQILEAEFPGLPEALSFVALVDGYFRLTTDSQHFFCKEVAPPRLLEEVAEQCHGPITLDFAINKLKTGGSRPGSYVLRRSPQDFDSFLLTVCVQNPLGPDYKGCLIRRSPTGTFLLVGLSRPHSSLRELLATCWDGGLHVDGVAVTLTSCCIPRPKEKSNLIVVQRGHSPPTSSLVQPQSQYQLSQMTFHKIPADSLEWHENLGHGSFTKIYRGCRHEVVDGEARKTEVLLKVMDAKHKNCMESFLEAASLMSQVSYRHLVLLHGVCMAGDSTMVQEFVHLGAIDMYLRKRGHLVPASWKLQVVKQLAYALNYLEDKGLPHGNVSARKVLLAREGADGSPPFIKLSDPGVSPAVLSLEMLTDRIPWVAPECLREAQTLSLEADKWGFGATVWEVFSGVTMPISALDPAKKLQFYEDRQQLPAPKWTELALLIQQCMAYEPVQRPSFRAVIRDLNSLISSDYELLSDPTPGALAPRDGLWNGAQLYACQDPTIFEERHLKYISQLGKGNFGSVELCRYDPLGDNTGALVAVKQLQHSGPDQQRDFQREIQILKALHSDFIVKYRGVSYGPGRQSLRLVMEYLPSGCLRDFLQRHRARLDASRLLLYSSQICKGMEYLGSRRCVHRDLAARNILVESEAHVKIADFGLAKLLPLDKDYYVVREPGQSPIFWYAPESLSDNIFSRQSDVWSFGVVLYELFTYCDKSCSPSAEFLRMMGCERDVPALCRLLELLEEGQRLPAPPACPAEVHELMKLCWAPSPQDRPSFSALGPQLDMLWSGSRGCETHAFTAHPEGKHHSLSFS
Description: JAK3 kinase inhibitory activity, ADP-Glo kinase assay (Promega V9441). The class given is biochemical. Particulars: ATP 5 uM, 4 ng JAK3 per reaction, 1 hour 30 °C, chemiluminescence. The procedure, abridged: (§1)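 IC50 values come from ADP-Glo luminescence after 1 h kinase reactions at 30 °C in 1% DMSO on 0.2 µg/µL Poly(Glu4,Tyr1) substrate. ATP was 10 µM for BTK (8 ng, buffer containing MnCl2) and 5 µM for JAK3 (4 ng), in Tris-Cl pH 7.5/MgCl2/BSA/DTT.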

For experiment [2], the target named is T2, Recombinant purified human BTK (Homo sapiens, UniProt Q06187).
T2 construct: purchased Promega V9071
The experiment can be described thus: BTK kinase inhibitory activity, ADP-Glo kinase assay (Promega V9071). It counts as biochemical. Particulars: ATP 10 uM, 8 ng BTK per reaction, 1 hour 30 °C, chemiluminescence. In short, it runs like this:
as §1

The structures appear in SMILES notation. Some results are limits rather than exact numbers.

As usually defined, the IC50 is the concentration that gives 50% inhibition.

T2 sequence (Q06187 whole entry): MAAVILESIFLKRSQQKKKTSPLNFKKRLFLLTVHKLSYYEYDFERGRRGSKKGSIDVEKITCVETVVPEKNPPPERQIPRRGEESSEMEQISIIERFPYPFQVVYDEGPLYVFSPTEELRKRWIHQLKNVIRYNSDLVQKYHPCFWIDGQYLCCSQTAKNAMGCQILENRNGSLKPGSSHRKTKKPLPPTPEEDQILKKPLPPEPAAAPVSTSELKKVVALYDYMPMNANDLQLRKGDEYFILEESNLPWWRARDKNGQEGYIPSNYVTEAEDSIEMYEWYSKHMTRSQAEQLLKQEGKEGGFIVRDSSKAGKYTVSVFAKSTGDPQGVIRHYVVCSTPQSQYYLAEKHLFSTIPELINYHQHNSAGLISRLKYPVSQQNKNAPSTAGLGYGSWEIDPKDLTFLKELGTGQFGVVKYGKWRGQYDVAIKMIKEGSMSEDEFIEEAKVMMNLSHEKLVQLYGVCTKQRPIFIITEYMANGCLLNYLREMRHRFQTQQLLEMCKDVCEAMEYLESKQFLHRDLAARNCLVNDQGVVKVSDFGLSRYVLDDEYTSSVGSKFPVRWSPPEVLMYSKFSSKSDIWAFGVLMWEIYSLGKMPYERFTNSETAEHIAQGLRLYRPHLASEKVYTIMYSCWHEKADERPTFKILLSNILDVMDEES

Take `C=CC(=O)N1CCC[C@@H](Nc2nc(Nc3ccc(N4CCOCC4)c(F)c3)nc3[nH]cc(Cl)c23)C1` [Example 98, (R)-1-(3-((5-chloro-2-((3-fluoro-4-morpholinophenyl)amino)-7H-pyrrolo [2,3-d]pyrimidin-4-yl)amino)piperidin-1-yl)prop-2-en-1-one]: the IC50 in experiment [1] stood at 2.4 nM; in experiment [2], 14.1 nM.
Turning to `C=CC(=O)N1CCC[C@@H](N(C)c2nc(Nc3cnn(CC)c3)nc3[nH]ccc23)C1` [Example 101, (R)-1-(3-((2-((1-ethyl-1H-pyrazol-4-yl)amino)-7H-pyrrolo[2,3-d]pyrimidin-4-yl)(methyl)amino)piperidin-1-yl)prop-2-en-1-one], the half-inhibitory concentration (IC50) in experiment [1] was 1.8 nM; in experiment [2] it was 7.4 nM.
As for `C=CC(=O)N1CCC[C@@H](N(C)c2nc(Nc3cnoc3)nc3[nH]ccc23)C1` [Example 102], the results for the IC50 in experiment [1] and in experiment [2] were 13.2 nM and 146 nM, respectively.
Take `C=CC(=O)N1CCC[C@@H](N(C)c2nc(Nc3cnn(CC(F)F)c3)nc3[nH]ccc23)C1` [Example 103, (R)-1-(3-((2-((1-(2,2-difluoroethyl)-1H-pyrazol-4-yl)amino)-7H-pyrrolo[2,3-d]pyrimidin-4-yl)(methyl)amino)piperidin-1-yl)prop-2-en-1-one]: the figures for the IC50 in experiment [1] and in experiment [2] were 1.3 nM and 21 nM, respectively.
On the same counts, the results for `C=CC(=O)N1CCC[C@@H](Sc2nc(Nc3cnn(CC)c3)nc3[nH]ccc23)C1` [Example 104, (R)-1-(3-((2-((1-ethyl-1H-pyrazol-4-yl)amino)-7H-pyrrolo[2,3-d]pyrimidin-4-yl)thio)piperidin-1-yl)prop-2-en-1-one] are 0.3 nM and 2.7 nM.
Consider `C=CC(=O)N1CCC[C@@H](Sc2nc(Nc3cnn(CC)c3)nc3[nH]ncc23)C1` [Example 105, (R)-1-(3-((6-((1-ethyl-1H-pyrazol-4-yl)amino)-1H-pyrazolo [3,4-d]pyrimidin-4-yl)thio)piperidin-1-yl)prop-2-en-1-one], for which the values for the half-inhibitory concentration (IC50) in experiment [1] and in experiment [2] were 3.6 nM and 1.9 nM, respectively.
The matching figures for `C=CC(=O)N1CC[C@@H](C)[C@@H](Nc2nc(Nc3cnn(CC)c3)nc3[nH]ncc23)C1` [Example 106, 1-((3R,4R)-3-((6-((1-ethyl-1H-pyrazol-4-yl)amino)-1H-pyrazolo [3,4-d]pyrimidin-4-yl)amino)-4-methylpiperidin-1-yl)prop-2-en-1-one]: 54.8 nM and 1.8 nM.
Consider `C=CC(=O)N1CCC[C@@H](Sc2nc(Nc3cnn(CC(F)F)c3)nc3[nH]nc(Cl)c23)C1` [Example 108], for which the values for the IC50 in experiment [1] and in experiment [2] were 0.6 nM and 1.3 nM, respectively.
Consider `C=CC(=O)N1CCC[C@@H](Sc2nc(Nc3cnn(C4CC4)c3)nc3[nH]nc(Cl)c23)C1` [Example 110], for which the IC50 amounted to 1.7 nM in experiment [1] and 1.4 nM in experiment [2].
The matching figures for `C=CC(=O)N1CCC[C@@H](Sc2nc(Nc3cnn(CC)c3)nc3[nH]nc(Cl)c23)C1` [Example 111, (R)-1-(3-((3-chloro-6-((1-ethyl-1H-pyrazol-4-yl)amino)-1H-pyrazolo[3,4-d]pyrimidin-4-yl)thio)piperidin-1-yl)prop-2-en-1-one]: 1.1 nM and 1.3 nM.
On the same counts, the results for `C=CC(=O)N1CCC[C@@H](Sc2nc(Nc3cnn(C(C)(C)C)c3)nc3[nH]nc(Cl)c23)C1` [Example 112, (R)-1-(3-((6-((1-(tert-butyl)-1H-pyrazol-4-yl)amino)-3-chloro-1H-pyrazolo [3,4-d]pyrimidin-4-yl)thio)piperidin-1-yl)prop-2-en-1-one] are 1.6 nM and 1.8 nM.
As to `C=CC(=O)N1CCC[C@@H](Sc2nc(Nc3cnn(CC(C)C)c3)nc3[nH]nc(Cl)c23)C1` [Example 113, (R)-1-(3-((3-chloro-6-((1-isobutyl-1H-pyrazol-4-yl)amino)-1H-pyrazolo[3,4-d]pyrimidin-4-yl)thio)piperidin-1-yl)prop-2-en-1-one], the concentration for half-maximal inhibition (IC50) in experiment [1] was 2.8 nM; in experiment [2] it was 2.3 nM.
The matching figures for `C=CC(=O)N1CCC[C@@H](Sc2nc(Nc3cnn(CC(F)(F)F)c3)nc3[nH]nc(Cl)c23)C1` [Example 114, (R)-1-(3-((3-chloro-6-((1-(2,2,2-trifluoroethyl)-1H-pyrazol-4-yl)amino)-1H-pyrazolo [3,4-d]pyrimidin-4-yl)thio)piperidin-1-yl)prop-2-en-1-one]: 0.9 nM and 2.3 nM.
The matching figures for `C=CC(=O)N1CCC[C@@H](Sc2nc(Nc3cnn(CCC)c3)nc3[nH]nc(Cl)c23)C1` [Example 115, (R)-1-(3-((3-chloro-6-((1-propyl-1H-pyrazol-4-yl)amino)-1H-pyrazolo[3,4-d]pyrimidin-4-yl)thio)piperidin-1-yl)prop-2-en-1-one]: 1.7 nM and 2 nM.
Take `C=CC(=O)N1CCC[C@@H](Sc2nc(Nc3cnoc3)nc3[nH]nc(Cl)c23)C1` [Example 116, (R)-1-(3-((3-chloro-6-(isoxazol-4-ylamino)-1H-pyrazolo [3,4-d]pyrimidin-4-yl)thio)piperidin-1-yl)prop-2-en-1-one]: the half-inhibitory concentration (IC50) in experiment [1] was 19.5 nM; in experiment [2], 25.3 nM.
Turning to `C=CC(=O)N1CCC[C@@H](Nc2nc(Nc3cnoc3C)nc3[nH]nc(Cl)c23)C1` [Example 117], the results for the half-maximal inhibitory concentration (IC50) in experiment [1] and in experiment [2] were more than 400 nM and 81.2 nM, respectively.
`C=CC(=O)N1CCC[C@@H](N(C)c2nc(Nc3cnn(CC)c3)nc3[nH]nc(Cl)c23)C1` [Example 118, (R)-1-(3-((3-chloro-6-((1-ethyl-1H-pyrazol-4-yl)amino)-1H-pyrazolo[3,4-d]pyrimidin-4-yl)(methyl)amino)piperidin-1-yl)prop-2-en-1-one]: the values for the half-inhibitory concentration (IC50) in experiment [1] and in experiment [2] were 3.2 nM and 1.3 nM, respectively.
As to `C=CC(=O)N1CCC[C@@H](N(C)c2nc(Nc3cnoc3)nc3[nH]nc(Cl)c23)C1` [Example 119], the figures for the IC50 in experiment [1] and in experiment [2] were 32.5 nM and 11.1 nM, respectively.
For the compound `C=CC(=O)N1CC[C@@H](C)[C@@H](Nc2nc(Nc3cnn(CC(F)(F)F)c3)nc3[nH]nc(Cl)c23)C1` [Example 120, 1-((3R,4R)-3-((3-chloro-6-((1-(2,2,2-trifluoroethyl)-1H-pyrazol-4-yl)amino)-1H-pyrazolo[3,4-d]pyrimidin-4-yl)amino)-4-methylpiperidin-1-yl)prop-2-en-1-one], the IC50 was determined as 7.8 nM in experiment [1] and 7.5 nM in experiment [2].
Take `C=CC(=O)N1CC[C@@H](C)[C@@H](Nc2nc(Nc3cnn(CCC)c3)nc3[nH]nc(Cl)c23)C1` [Example 121, 1-((3R,4R)-3-((3-chloro-6-((1-propyl-1H-pyrazol-4-yl)amino)-1H-pyrazolo[3,4-d]pyrimidin-4-yl)amino)-4-methylpiperidin-1-yl)prop-2-en-1-one]: the 50% inhibitory concentration (IC50) in experiment [1] was 18 nM; in experiment [2], 4.9 nM.
As for `C=CC(=O)N1CC[C@@H](C)[C@@H](Nc2nc(Nc3cnn(CCN(CC)CC)c3)nc3[nH]nc(Cl)c23)C1` [Example 122, 1-((3R,4R)-3-((3-chloro-6-((1-(2-(diethylamino)ethyl)-1H-pyrazol-4-yl)amino)-1H-pyrazolo[3,4-d]pyrimidin-4-yl)amino)-4-methylpiperidin-1-yl)prop-2-en-1-one], the concentration for half-maximal inhibition (IC50) was 8.1 nM in experiment [1] and 6 nM in experiment [2].

(Values after patent EP3478687B1 (Daewoong Pharmaceutical Co., Ltd., priority 2016, dated 2018).)
